According to patent publication US10710986B2, “PD-1/PD-L1 inhibitors” (Gilead Sciences, Inc., priority 2018, dated 2020):
pIC50: −log10 of the molar value. Several values for one entry are separate records, joined by “and”; a condition that tells them apart may be missing. Identical values can stand only once.

Assays:
[1] = system: HBV-specific CD8^+ T cells; assay: IFN-γ and granzyme B production in HBV-specific CD8+ T cells from CHB patient PBMCs (7-day expansion and recall, flow cytometry); format: cell-based, human
Procedure: PBMCs were isolated from whole blood using a standard Ficoll® Paque gradient. Briefly, 25-30 mL of blood was gently overlaid on top of 15 mL Ficoll® Paque Plus solution (GE Healthcare, Chicago, Ill.) in a 50 mL Falcon tube, and centrifuged in an Allegra X-14R (Beckman Coulter, Indianapolis, Ind.) at 520 g for 20 minutes at 25° C. […] Next, the cells were centrifuged at 520 g for 5 minutes and red blood cells (RBC) lysed for 5 minutes at room temperature using RBC Lysis Buffer (eBioscience, San Diego, Calif.). […] PBMCs were either subsequently used for the T cell expansion assay, or were cryopreserved with 10% DMSO in FBS before further use.
PBMCs were seeded at 2-4×10^5 cells/well in 96-well round bottom plates (Corning, N.Y.). […] PBMCs were incubated for 7 days at 37° C. with 5% CO2 in a humidified incubator. […] To inhibit protein transport, 1 μg/mL brefeldin. A solution (Sigma) was added to each well. After overnight incubation, cells were processed for immunostaining and flow cytometry as described herein.
Washed cells were resuspended in Live/Dead Aquamine Stain (Invitrogen) per manufacturer's instructions to determine the viability of the cells by flow cytometry. Live/Dead Aqua stained PBMCs were washed twice with FACS staining buffer (1% FBS in PBS), and then incubated with 50 μL of Fc blocking reagent (BD Biosciences, Franklin Lakes, N.J.) for 10 minutes at room temperature. A mixture of antibodies (50 μL/well) described in Table 6 were added to the blocking solution for surface staining, and PBMCs were incubated with the antibodies for 40 minutes at 4° C. […] Cells were washed twice with the permeabilization reagent included in the FoxP3 staining kit and incubated with antibodies for intracellular staining of IFN-γ and GrB (Table 6) at 1.0 μg/mL. After 1 hour incubation at 4° C., PBMCs were centrifuged and washed twice before being resuspended in FACS buffer. Stained PBMCs were analyzed by flow cytometry using a BD LSRFortessa X-20 Cell Analyzer (Becton Dickinson). BD Comp Beads (BD Biosciences) were used as compensation controls. CD8^+ and CD4^+ T cells were identified by gating on the live Aquamine ^−CD3^+CD8^+ and Aquamine-CD3+CD4^+ PBMC population respectively.
Flow cytometry data was analyzed using FlowJo Flow Cytometry Analysis Software v10 (TreeStar, Ashland, Oreg.). Data was exported and statistical analysis was performed using GraphPad Prism v6 (GraphPad Software, La Jolla, Calif.). Statistical significance relative to the DMSO control was calculated by two-tailed, paired t-test.

PD-1/PD-L1 = PD-1/PD-L1 (Homo sapiens (Human), UniProt Q9NZQ7); assay: PD-1/PD-L1 biochemical protein-protein interaction assay (ALPHA); conditions: 0.3 nM His tagged PD-L1, 2.5 nM biotinylated Fc-PD-1, 60 minutes at 25° C., read-out: IC50 PD-L1-PD1
Chain of PD-1/PD-L1 (Q9NZQ7 19-238): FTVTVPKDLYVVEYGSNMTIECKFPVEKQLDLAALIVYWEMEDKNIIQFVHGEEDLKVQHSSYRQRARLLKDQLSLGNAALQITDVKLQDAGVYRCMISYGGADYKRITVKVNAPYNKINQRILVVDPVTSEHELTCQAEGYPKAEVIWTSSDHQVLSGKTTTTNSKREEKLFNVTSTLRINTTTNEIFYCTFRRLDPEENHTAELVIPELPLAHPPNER

[2] = 650 nM, HBV core peptide-stimulated PBMCs from 14 CHB donors
[3] = PBMCs from 9 of the 14 CHB donors, compound 139 650 nM, durvalumab 10 μg/mL
[4] = average over CHB donors (14 for compound 139, 9 for durvalumab)
[5] = individual CHB donor, HBV core peptide-stimulated PBMCs, compound 139 at 650 nM

SMILES | pIC50 (PD-1/PD-L1) | also measured
COc1nc(-c2cccc(-c3cccc(-c4cnc(CNC[C@@H]5CCC(=O)N5)c(OC)n4)c3Cl)c2Cl)cnc1CNC[C@@H]1CCC(=O)N1 [compound 139] | – | increase of frequency of GrB^+ CD8^+ T cells compared with DMSO [1, 2]: 1.2 fold; increase of frequency of IFN-γ^+ CD8^+ T cells compared with DMSO [1, 2]: 2.5 fold; increase of GrB^+ CD8^+ T cells, comparison with durvalumab [1, 3]: 1.2 fold; increase of IFN-γ^+ CD8^+ T cells, comparison with durvalumab [1, 3]: 2.5 fold; % GrB+ (GrB+ CD8+ T cells), Average [1, 4]: 33.68%; % IFN-γ+ (IFN-γ+ CD8+ T cells), Average [1, 4]: 3.13%; % GrB+ (GrB+ CD8+ T cells) [1, 5]: 47.80% and 8.78% and 50.30% and 30.67% and 28.15% and 24.10% and 45.05% and 20.20% and 33.50% and 52.67% and 18.93% and 23.23% and 55.80% and 32.30%; % IFN-γ+ (IFN-γ+ CD8+ T cells) [1, 5]: 2.63% and 0.94% and 0.41% and 0.61% and 3.06% and 0.90% and 3.28% and 4.69% (2×) and 0.30% and 7.74% and 1.86% and 11.17% and 1.53%
COc1nc(-c2cccc(-c3cccc(-c4cnc(CN[C@H]5C[C@@H](C(N)=O)C5)c(OC)n4)c3Cl)c2Cl)ccc1CNC[C@@H]1CNC(=O)C1 [compound 639] | 10.18 | –
COc1nc(-c2cccc(-c3cccc(-c4cnc(CN[C@H]5CCC[C@H]5O)c(OC)n4)c3Cl)c2Cl)ccc1CNC[C@@H]1CNC(=O)C1 [compound 640] | 9.78 | –
COc1nc(-c2cccc(-c3cccc(-c4cnc(C5=NC[C@@H](C)N5)c(OC)n4)c3Cl)c2Cl)ccc1CNC[C@@H]1CCC(=O)N1 [compound 644] | 10.03 | –
COc1nc(-c2cccc(-c3cccc(-c4cnc(CN[C@H]5CC[C@@H](CO)C5)c(OC)n4)c3Cl)c2Cl)cnc1CNC[C@@H]1CCC(=O)N1 [compound 648] | 10.10 | –
COc1nc(-c2cccc(-c3cccc(-c4cnc(CN5CC6(CCC(=O)N6)C5)c(OC)n4)c3Cl)c2F)ccc1CN1CC2(CCC(=O)N2)C1 [compound 649] | 9.89 | –
COc1nc(-c2cccc(-c3cccc(-c4cc(C)c(CNC[C@H]5C[C@H](O)C5)c(OC)n4)c3Cl)c2Cl)cnc1CNC[C@@H]1CCC(=O)N1 [compound 652] | 9.92 | –
COc1nc(-c2cccc(-c3cccc(-c4cc(C)c(CN5CC(C(=O)O)C6(CCOC6)C5)c(OC)n4)c3Cl)c2Cl)cnc1CNC[C@@H]1CCC(=O)N1 (stereo partly drawn) [compound 654] | 10.15 | –
COc1nc(-c2cccc(-c3cccc(-c4cnc(CNC[C@H]5C[C@H](O)C5)c(OC)n4)c3Cl)c2Cl)ccc1CNC[C@@H]1CCC(=O)N1 [compound 656] | 9.78 | –
COc1nc(-c2cccc(-c3cccc(-c4cnc(CNC[C@@H]5CCC(=O)N5)c(OC)n4)c3Cl)c2Cl)cnc1CNCC1CCNC1=O (stereo partly drawn) [compound 658] | 9.71 | –
COc1nc(-c2cccc(-c3cccc(-c4cnc(CNC[C@@H]5CCC(=O)N5)c(OC)n4)c3Cl)c2Cl)cnc1CNCC1CCNC(=O)C1 (stereo partly drawn) [compound 659] | 9.92 | –
COc1nc(-c2cccc(-c3cccc(-c4cnc(CNCC5CCNC(=O)C5)c(OC)n4)c3Cl)c2Cl)cnc1CNCC1CCNC(=O)C1 (stereo not drawn) [compound 660] | 9.87 | –
COc1nc(-c2cccc(-c3cccc(-c4cnc(CN5CC6(C5)CN(C(C)=O)C6)c(OC)n4)c3Cl)c2C)cnc1CN1CC2(C1)CN(C(C)=O)C2 [compound 662] | 10.09 | –
COc1nc(-c2cccc(-c3cccc(-c4cnc(CN5CC[C@@H](CNC(C)=O)C5)c(OC)n4)c3Cl)c2Cl)cnc1CN1CC[C@@H](CNC(C)=O)C1 [compound 663] | 9.55 | –

The remaining molecules from weak to strong by pIC50 (PD-1/PD-L1), led by results:

pIC50 (PD-1/PD-L1) | SMILES | also measured
10.19 | COc1nc(-c2cccc(-c3cccc(-c4cnc(C5=NCCN5)c(OC)n4)c3Cl)c2Cl)ccc1CN1CC2(CCC(=O)N2)C1 [compound 641] | –
10.19 | COc1nc(-c2cccc(-c3cccc(-c4cnc(C5=NCCN5)c(OC)n4)c3Cl)c2Cl)ccc1CN1CC(C)(O)C1 [compound 642] | –
10.19 | COc1nc(-c2cccc(-c3cccc(-c4cnc(C5=NC[C@H](C)N5)c(OC)n4)c3Cl)c2Cl)ccc1CNC[C@@H]1CCC(=O)N1 [compound 643] | –
10.19 | COc1nc(-c2cccc(-c3cccc(-c4cnc(C5=NCCN5)c(OC)n4)c3Cl)c2Cl)ccc1CNC[C@@H]1CCC(=O)N1 [compound 645] | –
10.19 | COc1nc(-c2cccc(-c3cccc(-c4cnc(C5=NC[C@H](C)N5)c(OC)n4)c3Cl)c2Cl)cnc1CNC[C@@H]1CCC(=O)N1 [compound 646] | –
10.19 | COc1nc(-c2cccc(-c3cccc(-c4cnc(C5=NC[C@@H](C)N5)c(OC)n4)c3Cl)c2Cl)cnc1CNC[C@@H]1CCC(=O)N1 [compound 647] | –
10.19 | COc1nc(-c2cccc(-c3cccc(-c4cc(C)c(CN5CC6(CCC(=O)N6)C5)c(OC)n4)c3F)c2Cl)cnc1CN1CC2(CCC(=O)N2)C1 [compound 650] | –
10.19 | COc1nc(-c2cccc(-c3cccc(-c4cc(C)c(CN5CC6(CNC(=O)C6)C5)c(OC)n4)c3F)c2Cl)cnc1CN1CC2(CNC(=O)C2)C1 [compound 651] | –
10.19 | COc1nc(-c2cccc(-c3cccc(-c4cc(C)c(CN5CC6(C5)CN(C(C)=O)C6)c(OC)n4)c3Cl)c2Cl)cnc1CNC[C@@H]1CCC(=O)N1 [compound 653] | –
10.19 | COc1nc(-c2cccc(-c3cccc(-c4cc(C)c(CN5C[C@@H]6CCC[C@]6(C(=O)O)C5)c(OC)n4)c3Cl)c2Cl)cnc1CNC[C@@H]1CCC(=O)N1 [compound 655] | –
10.19 | COc1nc(-c2cccc(-c3cccc(-c4cnc(CN5CC(OCC(N)=O)C5)c(OC)n4)c3Cl)c2Cl)cnc1CN1CC(OCC(N)=O)C1 [compound 657] | –
10.19 | COc1nc(-c2cccc(-c3cccc(-c4cnc(CNCC5CCNC5=O)c(OC)n4)c3Cl)c2Cl)cnc1CNCC1CCNC1=O (stereo not drawn) [compound 661] | –
